Tests used:
[1] = Stability of flavonoids and biotransformation products in mouse plasma under different handling conditions; type: in vitro ADME, mice; conditions: for Accuracy Bias 0 h / Observed Conc. 0 h / Accuracy Bias 8 h / Observed Conc. 8 h / Accuracy Bias 24 h / Observed Conc. 24 h: room temperature (25 °C); for Observed Conc. 0 h / Observed Conc. 8 h / Observed Conc. 24 h / Observed Conc. Autosampler (4 °C; 8 h) / Observed Conc. Long-term (−70 °C; 1 month): n = 6; for Accuracy Bias Autosampler (4 °C; 8 h) / Accuracy Bias Long-term (−70°C; 1 month) / Observed Conc. Autosampler (4 °C; 8 h) / Observed Conc. Long-term (−70 °C; 1 month): storage stability
Procedure: (§1) Plasma dried pulverized samples were extracted with methanol (HPLC grade, Merck). The extracts were filtered with Teflon membrane dimensions 0.45 μm by 13 mm (Millex®-LCR); 20 μL of each filtered sample was injected into the HPLC equipment. The measurements were performed in a (Waters corporation, Milford, CT, USA) 2695 HPLC with a diode array detector (Waters 2996) and processed with the Empower Pro 1.0 software. A Chromolith Performance® RP-18e 100 × 4.6 mm (Merck KGaA, Darmstadt, Germany) was used. The mobile phase consisted of a mixture of acetonitrile and water with the proportion 55:45 and a flow rate of 1 mL/min. The concentrations of the flavonoids and the biotransformation products were obtained by comparison with a pre-built calibration curve at λ = 220 nm.
[…] The investigation enclosed here expected manipulation conditions during all the sample storage and process periods, which included the stability data from the freeze/thaw, bench-top, autosampler, and long–term stability tests.
For all stability studies, fresh QC samples were evaluated by using a freshly prepared standard curve for the measurements. The concentrations obtained from all the stability studies were compared with the fresh QC samples, and the percentage concentration deviation was calculated. The analytes were considered stable in the mouse plasma when the concentration difference between the freshly prepared samples and the stability samples was less than 15%.

[2] = Plasma concentration after a single oral dose of the anxiolytic fraction (HPLC); type: in vivo, ICR mice; conditions: mouse, plasma, ICR mice, n = 10
Procedure: Eleven groups of ten animals each were randomly formed. All animals were orally administered with 200 mg/kg of the active fraction. Animals were anaesthetized with ether, and blood samples were obtained from the retroorbital sinus with a heparinized capillary, each group was examined at different times (0, 5, 10, 15, 30, 60, 120, 240, 480, 720, and 1440 min) after the active fraction was administered. […] Then the plasma samples were frozen and lyophilized. The dry plasma was subsequently used to extract and measure the concentration of the flavonoids and biotransformation products.
as §1
(§2) To evaluate the suitability of the assay for the pharmacokinetic studies, 200 mg/kg of the active fraction was orally administered to the animals. Ten animals were used in each group at different times (0, 5, 10, 15, 30, 60, 120, 240, 480, 720, and 1440 min). Pharmacokinetic calculations were performed using the observed data. All data was subsequently processed using the PKSolver add-in program for Microsoft Excel written in Visual Basic for Applications. All values obtained were expressed in mean ± standard deviation.

[3] = Pharmacokinetic analysis, two-compartment model (PKSolver); type: in vivo, ICR mice
Procedure: The data shown in Table 2 were applied to the program PKSolver. After a single oral administration of 200 mg/kg of the anxiolitic fraction of T. americana, the behavior of the concentration-time data allowed us to determine the main pharmacokinetic parameters under a two-compartment model (Table 3), and the same program provided the graphical behavior of the variables and the adjustment to the two-compartment model.
as §2
For the pharmacokinetic assay, the selection was made either from a one-compartment or a two-compartment model, with the use of both the Akaike information criterion (AIC) and the Schwarz criterion (SC). Using these two criteria, one can select which model is more suited to being adjusted, to the point where it reaches the lowest values of the AIC or SC criteria, which means that the chosen model is more parsimonious (less parameters required) and best fits the data (low error prediction).

[4] = high nominal conc. (7.00; 44.37; 4.50; 31.25 µg/mL)
[5] = low nominal conc. (1.75; 11.02; 1.12; 1.95 µg/mL)
[6] = medium nominal conc. (3.50; 22.18; 2.24; 7.81 µg/mL)
[7] = mouse, oral 200 mg/kg anxiolytic fraction, ICR mice plasma, two-compartment model
[8] = oral 200 mg/kg anxiolytic fraction, ICR mice plasma, two-compartment model
[9] = oral 200 mg/kg anxiolytic fraction, ICR mice plasma, two-compartment model, n = 10

O=C(O)Cc1cccc(O)c1 [m-HPAA, meta-hydroxyphenylacetic acid]
Accuracy Bias 0 h ([1]; high nominal conc.): 1.88%
Observed Conc. 0 h ([1]; high nominal conc. (rutin 7.00; quercetin glucoside, quercitrin, tiliroside 44.37; kaempferol 4.50; m-HPAA, p-HPAA, DOPAC 31.25 µg/mL)): 31.40 ± 0.10 µg/mL
Accuracy Bias 0 h ([1]; low nominal conc.): 0.47%
Observed Conc. 0 h ([1]; low nominal conc. (rutin 1.75; quercetin glucoside, quercitrin, tiliroside 11.02; kaempferol 1.12; m-HPAA, p-HPAA, DOPAC 1.95 µg/mL)): 1.91 ± 0.2 µg/mL
Accuracy Bias 0 h ([1]; medium nominal conc.): 0.13%
Observed Conc. 0 h ([1]; medium nominal conc. (rutin 3.50; quercetin glucoside, quercitrin, tiliroside 22.18; kaempferol 2.24; m-HPAA, p-HPAA, DOPAC 7.81 µg/mL)): 7.80 ± 0.01 µg/mL
Accuracy Bias 8 h ([1]; high nominal conc.): 0.90%
Observed Conc. 8 h [1, 4]: 31.53 ± 0.19 µg/mL
Accuracy Bias 8 h ([1]; low nominal conc.): 2.23%
Observed Conc. 8 h [1, 5]: 1.91 ± 0.03 µg/mL
Accuracy Bias 8 h ([1]; medium nominal conc.): 2.18%
Observed Conc. 8 h [1, 6]: 7.98 ± 0.12 µg/mL
Accuracy Bias 24 h ([1]; high nominal conc.): 0.30%
Observed Conc. 24 h [1, 4]: 31.34 ± 0.07 µg/mL
Accuracy Bias 24 h ([1]; low nominal conc.): 2.73%
Observed Conc. 24 h [1, 5]: 1.90 ± 0.04 µg/mL
Accuracy Bias 24 h ([1]; medium nominal conc.): 0.09%
Observed Conc. 24 h [1, 6]: 7.82 ± 0.01 µg/mL
Accuracy Bias Autosampler (4 °C; 8 h) ([1]; high nominal conc.): 2.73%
Accuracy Bias Long-term (−70°C; 1 month) ([1]; high nominal conc.): 2.23%
Observed Conc. Autosampler (4 °C; 8 h) [1, 4]: 31.34 ± 0.07 µg/mL
Observed Conc. Long-term (−70 °C; 1 month) [1, 4]: 31.20 ± 0.19 µg/mL
Accuracy Bias Autosampler (4 °C; 8 h) ([1]; low nominal conc.): 0.09%
Accuracy Bias Long-term (−70°C; 1 month) ([1]; low nominal conc.): 0.90%
Observed Conc. Autosampler (4 °C; 8 h) [1, 5]: 1.93 ± 0.04 µg/mL
Observed Conc. Long-term (−70 °C; 1 month) [1, 5]: 1.92 ± 0.03 µg/mL
Accuracy Bias Autosampler (4 °C; 8 h) ([1]; medium nominal conc.): 0.30%
Accuracy Bias Long-term (−70°C; 1 month) ([1]; medium nominal conc.): 2.18%
Observed Conc. Autosampler (4 °C; 8 h) [1, 6]: 7.82 ± 0.01 µg/mL
Observed Conc. Long-term (−70 °C; 1 month) [1, 6]: 7.80 ± 0.12 µg/mL
concentration at 5 min ([2]; 5 min after single oral dose of 200 mg/kg of the anxiolytic fraction, ND = not detected): 4670 ± 270 ng/mL
concentration at 10 min ([2]; 10 min after single oral dose of 200 mg/kg of the anxiolytic fraction): 5060 ± 220 ng/mL
concentration at 15 min ([2]; 15 min after single oral dose of 200 mg/kg of the anxiolytic fraction): 4750 ± 290 ng/mL
concentration at 30 min ([2]; 30 min after single oral dose of 200 mg/kg of the anxiolytic fraction): 4520 ± 280 ng/mL
concentration at 60 min ([2]; 60 min after single oral dose of 200 mg/kg of the anxiolytic fraction): 4290 ± 130 ng/mL
concentration at 120 min ([2]; 120 min after single oral dose of 200 mg/kg of the anxiolytic fraction): 4170 ± 330 ng/mL
concentration at 240 min ([2]; 240 min after single oral dose of 200 mg/kg of the anxiolytic fraction): 4110 ± 230 ng/mL
concentration at 480 min ([2]; 480 min after single oral dose of 200 mg/kg of the anxiolytic fraction): 4040 ± 250 ng/mL
concentration at 720 min ([2]; 720 min after single oral dose of 200 mg/kg of the anxiolytic fraction): 3940 ± 190 ng/mL
concentration at 1440 min ([2]; 1440 min after single oral dose of 200 mg/kg of the anxiolytic fraction): 3790 ± 280 ng/mL
ka smaller than the ka of DOPAC ([3]; mouse, in vivo): 79%
AUC(0-inf) [3, 7]: 124 µg·h/mL
Cmax [3, 7]: 5760 ng/mL
Tmax [3, 7]: 14.1 min
AUC(0-t) ([3]; mouse, oral 200 mg/kg anxiolytic fraction, ICR mice plasma, two-compartment model, read-out: AUC0→1440 (converted)): 61400 ng·h/mL
MRT ([3]; mouse, oral 200 mg/kg anxiolytic fraction, ICR mice plasma, two-compartment model, read-out: MRT (mean residence time) (converted)): 35.4 h
k el ([3]; mouse, oral 200 mg/kg anxiolytic fraction, ICR mice plasma, two-compartment model, read-out: k10 (apparent first-order elimination rate constant from the central compartment) (converted)): 1.5e-05 s⁻¹
half-life ([3]; mouse, oral 200 mg/kg anxiolytic fraction, ICR mice plasma, two-compartment model, read-out: t1/2β): 1500 min
CL/F (apparent clearance) [3, 8]: 0.026 (mg/Kg)/(μg/mL)/min
V/F (apparent volume of distribution) [3, 8]: 30.45 (mg/Kg)/(µg/mL)
k12 (transfer rate constant central to peripheral compartment) [3, 8]: 0.009 min⁻¹
k21 (transfer rate constant peripheral to central compartment) [3, 8]: 0.01 min⁻¹
ka (apparent first-order absorption rate constant) [3, 8]: 0.24 min⁻¹
t1/2ka (absorption half time) [3, 8]: 2.84 min
t1/2α [3, 8]: 35.08 min
α [3, 8]: 0.02 min⁻¹
β [3, 8]: 0.0005 min⁻¹
A (plasma concentration coefficient, central compartment) [3, 9]: 3.49 µg/mL
B (plasma concentration coefficient, peripheral compartment) [3, 9]: 3.36 µg/mL
index: relation between rate constants of k12 with respect to k21 ([3]; two-compartment model): 0.9

Reference: publication PMC6152131, “Pharmacokinetic Study of Biotransformation Products from an Anxiolytic Fraction of Tilia americana” (Molecules : A Journal of Synthetic Chemistry and Natural …, 2017)
